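Dose response: 5 concentrations. Exposure: 48 h. Format: 96-well plates. Endpoint: linear interpolation; highest concentration if not reached. At the TGI there is no net growth.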
What was measured:
Experiment in all cases: NCI-60 cell line screen, 48 h
NCI-H226 lung = tested on: NCI-H226 lung
IGROV1 ovarian = tested on: IGROV1 ovarian
SNB-75 CNS = tested on: SNB-75 CNS
COLO 205 colon = tested on: COLO 205 colon
UACC-257 melanoma = tested on: UACC-257 melanoma
SNB-19 CNS = tested on: SNB-19 CNS
U251 CNS = tested on: U251 CNS
HCT-15 colon = tested on: HCT-15 colon
ACHN renal = tested on: ACHN renal
OVCAR-3 ovarian = tested on: OVCAR-3 ovarian
SW-620 colon = tested on: SW-620 colon
A498 renal = tested on: A498 renal
DU-145 prostate = tested on: DU-145 prostate
HL-60(TB) leukemia = tested on: HL-60(TB) leukemia
HCT-116 colon = tested on: HCT-116 colon
CAKI-1 renal = tested on: CAKI-1 renal
NCI-H23 lung = tested on: NCI-H23 lung
MCF7 breast = tested on: MCF7 breast
MALME-3M melanoma = tested on: MALME-3M melanoma
SN12C renal = tested on: SN12C renal
EKVX NSCLC = tested on: EKVX NSCLC
RPMI-8226 leukemia = tested on: RPMI-8226 leukemia
KM12 colon = tested on: KM12 colon
SR leukemia = tested on: SR leukemia
LOX IMVI melanoma = tested on: LOX IMVI melanoma
OVCAR-4 ovarian = tested on: OVCAR-4 ovarian
UO-31 renal = tested on: UO-31 renal
786-0 renal = tested on: 786-0 renal
MDA-MB-231 breast = tested on: MDA-MB-231 breast
HOP-62 NSCLC = tested on: HOP-62 NSCLC
TK-10 renal = tested on: TK-10 renal
SF-539 CNS = tested on: SF-539 CNS
HCC-2998 colon = tested on: HCC-2998 colon
RXF 393 renal = tested on: RXF 393 renal
HT29 colon = tested on: HT29 colon
HS 578T breast = tested on: HS 578T breast
OVCAR-5 ovarian = tested on: OVCAR-5 ovarian
K-562 leukemia = tested on: K-562 leukemia
NCI-H522 lung = tested on: NCI-H522 lung
NCI-H460 lung = tested on: NCI-H460 lung
M14 melanoma = tested on: M14 melanoma
CCRF-CEM leukemia = tested on: CCRF-CEM leukemia
SK-OV-3 ovarian = tested on: SK-OV-3 ovarian
HOP-92 NSCLC = tested on: HOP-92 NSCLC
T-47D breast = tested on: T-47D breast
MDA-MB-435 = tested on: MDA-MB-435
SK-MEL-28 melanoma = tested on: SK-MEL-28 melanoma
SF-268 CNS = tested on: SF-268 CNS
SK-MEL-2 melanoma = tested on: SK-MEL-2 melanoma
OVCAR-8 ovarian = tested on: OVCAR-8 ovarian
MDA-N = tested on: MDA-N
MOLT-4 leukemia = tested on: MOLT-4 leukemia
SF-295 CNS = tested on: SF-295 CNS
SK-MEL-5 melanoma = tested on: SK-MEL-5 melanoma
A549 NSCLC = tested on: A549 NSCLC
PC-3 prostate = tested on: PC-3 prostate
NCI/ADR-RES ovarian = tested on: NCI/ADR-RES ovarian

Measured: TGI

CCOC(=O)Cc1csc(NC(NC(=O)OCC)(C(=O)OCC)C(F)(F)F)n1 (stereo not given)
> 100 µM: all assays above

COC(=O)CCC(=O)c1ccc2c(c1)CCC2
not listed: NCI-H226 lung | COLO 205 colon | SN12C renal | KM12 colon
> 100 µM: all other assays above

From PubChem BioAssay (NCI)
